Laboratory results published in US20250228835A1, “PYRIDINYLOXYPYRIDINES AND RELATED COMPOUNDS AND THEIR USE IN TREATING MEDICAL CONDITIONS” (Rectify Pharmaceuticals, Inc., priority 2024, published 2025).

Columns and labels:
ABCA4 P1380L = target: T1, ABCA4 P1380L (Homo sapiens, UniProt P78363, P1380L); assay: A4 correction dose-response assay: ABCA4 P1380L HiBit protein expression; format: cell-based; conditions: HEK-293 cells stably expressing HiBit-tagged ABCA4 P1380L; 24 h treatment; top concentration 30 μM; read-out: ABCA4 P1380L EC50, Emax
T1 construct: expressed in transfected cells
Outline: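 Cells transfected with HiBit-tagged human ABCA4 P1380L cDNA were treated for 24 h at 37°C with an eleven-point dilution series (top final 30 μM, 0.3% DMSO).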

ABCC6 WT = target: T2, ABCC6 WT (Homo sapiens, UniProt O95255); assay: ABCC6 WT assay: HiBit protein expression; format: cell-based; conditions: HEK-293 cells transiently expressing HiBit-tagged ABCC6 WT; 24 h treatment; top concentration 20 μM; read-out: ABCC6 WT EC50, Emax
T2 construct: expressed in transfected cells; host or cells: HEK-293 (transient, Lipofectamine 2000)
Outline: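 HEK-293 cells transiently transfected with HiBit-tagged human ABCC6 WT cDNA, seeded 24 h post-transfection, treated 24 h at 37° C with ten 2-fold doses (top 20 μM final, 0.15% DMSO). HiBit lytic luminescence reports protein expression; Emax and EC50 derived.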

T1 sequence (P78363 whole entry P1380L): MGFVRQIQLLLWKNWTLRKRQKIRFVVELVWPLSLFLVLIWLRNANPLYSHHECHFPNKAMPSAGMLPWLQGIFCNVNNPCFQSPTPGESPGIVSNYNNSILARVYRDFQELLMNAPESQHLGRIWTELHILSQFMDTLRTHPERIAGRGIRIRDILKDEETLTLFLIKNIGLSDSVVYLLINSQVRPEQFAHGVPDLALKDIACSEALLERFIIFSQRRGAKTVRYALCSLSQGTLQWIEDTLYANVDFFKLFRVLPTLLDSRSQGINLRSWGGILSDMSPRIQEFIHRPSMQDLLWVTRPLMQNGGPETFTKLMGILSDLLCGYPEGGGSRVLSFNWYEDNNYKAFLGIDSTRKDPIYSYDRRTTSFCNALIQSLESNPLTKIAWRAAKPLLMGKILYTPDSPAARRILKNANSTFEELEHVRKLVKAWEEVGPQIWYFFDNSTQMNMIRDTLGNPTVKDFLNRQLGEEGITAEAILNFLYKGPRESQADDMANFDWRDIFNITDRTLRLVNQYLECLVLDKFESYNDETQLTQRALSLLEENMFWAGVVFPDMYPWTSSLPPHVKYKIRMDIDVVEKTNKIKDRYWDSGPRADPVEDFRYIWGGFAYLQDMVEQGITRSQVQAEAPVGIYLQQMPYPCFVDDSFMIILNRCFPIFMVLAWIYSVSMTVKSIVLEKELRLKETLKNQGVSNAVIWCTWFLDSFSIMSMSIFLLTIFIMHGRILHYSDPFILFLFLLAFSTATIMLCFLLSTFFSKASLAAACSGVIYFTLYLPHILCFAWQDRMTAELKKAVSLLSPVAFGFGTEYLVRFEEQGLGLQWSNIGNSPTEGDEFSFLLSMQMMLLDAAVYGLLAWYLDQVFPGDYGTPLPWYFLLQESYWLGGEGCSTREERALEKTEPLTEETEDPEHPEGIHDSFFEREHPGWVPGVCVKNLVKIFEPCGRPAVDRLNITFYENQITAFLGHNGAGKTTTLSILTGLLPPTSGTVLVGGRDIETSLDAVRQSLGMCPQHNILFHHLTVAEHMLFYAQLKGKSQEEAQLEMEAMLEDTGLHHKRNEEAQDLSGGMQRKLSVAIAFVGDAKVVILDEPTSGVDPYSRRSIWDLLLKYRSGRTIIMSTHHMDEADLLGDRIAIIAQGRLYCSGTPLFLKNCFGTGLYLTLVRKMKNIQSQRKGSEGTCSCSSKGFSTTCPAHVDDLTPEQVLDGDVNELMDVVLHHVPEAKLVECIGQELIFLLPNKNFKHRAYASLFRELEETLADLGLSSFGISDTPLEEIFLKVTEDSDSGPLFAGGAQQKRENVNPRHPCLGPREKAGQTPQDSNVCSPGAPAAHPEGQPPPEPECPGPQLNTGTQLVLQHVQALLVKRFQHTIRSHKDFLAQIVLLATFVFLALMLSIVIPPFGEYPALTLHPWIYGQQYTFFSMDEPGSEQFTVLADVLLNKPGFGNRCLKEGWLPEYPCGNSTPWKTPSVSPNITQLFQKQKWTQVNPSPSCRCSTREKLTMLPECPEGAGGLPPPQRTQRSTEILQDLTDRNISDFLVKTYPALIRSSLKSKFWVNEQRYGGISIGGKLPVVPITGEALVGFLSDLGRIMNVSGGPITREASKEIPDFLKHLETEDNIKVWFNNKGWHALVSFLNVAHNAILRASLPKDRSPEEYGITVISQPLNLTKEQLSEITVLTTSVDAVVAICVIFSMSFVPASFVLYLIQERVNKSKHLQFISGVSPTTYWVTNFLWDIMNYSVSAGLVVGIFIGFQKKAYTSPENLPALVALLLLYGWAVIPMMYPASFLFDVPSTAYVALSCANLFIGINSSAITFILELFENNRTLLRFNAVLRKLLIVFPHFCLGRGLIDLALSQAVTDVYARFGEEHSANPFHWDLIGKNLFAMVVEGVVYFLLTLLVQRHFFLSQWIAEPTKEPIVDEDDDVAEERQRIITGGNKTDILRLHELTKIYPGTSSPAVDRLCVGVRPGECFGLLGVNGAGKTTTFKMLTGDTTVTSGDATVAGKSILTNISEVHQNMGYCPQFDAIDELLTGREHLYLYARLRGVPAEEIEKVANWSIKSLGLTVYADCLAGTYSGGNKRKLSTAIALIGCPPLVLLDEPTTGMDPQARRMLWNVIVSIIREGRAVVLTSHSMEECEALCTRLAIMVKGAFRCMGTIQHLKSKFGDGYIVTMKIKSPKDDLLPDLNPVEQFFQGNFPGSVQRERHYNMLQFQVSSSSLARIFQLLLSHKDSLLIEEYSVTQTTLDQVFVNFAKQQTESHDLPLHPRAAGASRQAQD
T2 sequence (O95255 whole entry): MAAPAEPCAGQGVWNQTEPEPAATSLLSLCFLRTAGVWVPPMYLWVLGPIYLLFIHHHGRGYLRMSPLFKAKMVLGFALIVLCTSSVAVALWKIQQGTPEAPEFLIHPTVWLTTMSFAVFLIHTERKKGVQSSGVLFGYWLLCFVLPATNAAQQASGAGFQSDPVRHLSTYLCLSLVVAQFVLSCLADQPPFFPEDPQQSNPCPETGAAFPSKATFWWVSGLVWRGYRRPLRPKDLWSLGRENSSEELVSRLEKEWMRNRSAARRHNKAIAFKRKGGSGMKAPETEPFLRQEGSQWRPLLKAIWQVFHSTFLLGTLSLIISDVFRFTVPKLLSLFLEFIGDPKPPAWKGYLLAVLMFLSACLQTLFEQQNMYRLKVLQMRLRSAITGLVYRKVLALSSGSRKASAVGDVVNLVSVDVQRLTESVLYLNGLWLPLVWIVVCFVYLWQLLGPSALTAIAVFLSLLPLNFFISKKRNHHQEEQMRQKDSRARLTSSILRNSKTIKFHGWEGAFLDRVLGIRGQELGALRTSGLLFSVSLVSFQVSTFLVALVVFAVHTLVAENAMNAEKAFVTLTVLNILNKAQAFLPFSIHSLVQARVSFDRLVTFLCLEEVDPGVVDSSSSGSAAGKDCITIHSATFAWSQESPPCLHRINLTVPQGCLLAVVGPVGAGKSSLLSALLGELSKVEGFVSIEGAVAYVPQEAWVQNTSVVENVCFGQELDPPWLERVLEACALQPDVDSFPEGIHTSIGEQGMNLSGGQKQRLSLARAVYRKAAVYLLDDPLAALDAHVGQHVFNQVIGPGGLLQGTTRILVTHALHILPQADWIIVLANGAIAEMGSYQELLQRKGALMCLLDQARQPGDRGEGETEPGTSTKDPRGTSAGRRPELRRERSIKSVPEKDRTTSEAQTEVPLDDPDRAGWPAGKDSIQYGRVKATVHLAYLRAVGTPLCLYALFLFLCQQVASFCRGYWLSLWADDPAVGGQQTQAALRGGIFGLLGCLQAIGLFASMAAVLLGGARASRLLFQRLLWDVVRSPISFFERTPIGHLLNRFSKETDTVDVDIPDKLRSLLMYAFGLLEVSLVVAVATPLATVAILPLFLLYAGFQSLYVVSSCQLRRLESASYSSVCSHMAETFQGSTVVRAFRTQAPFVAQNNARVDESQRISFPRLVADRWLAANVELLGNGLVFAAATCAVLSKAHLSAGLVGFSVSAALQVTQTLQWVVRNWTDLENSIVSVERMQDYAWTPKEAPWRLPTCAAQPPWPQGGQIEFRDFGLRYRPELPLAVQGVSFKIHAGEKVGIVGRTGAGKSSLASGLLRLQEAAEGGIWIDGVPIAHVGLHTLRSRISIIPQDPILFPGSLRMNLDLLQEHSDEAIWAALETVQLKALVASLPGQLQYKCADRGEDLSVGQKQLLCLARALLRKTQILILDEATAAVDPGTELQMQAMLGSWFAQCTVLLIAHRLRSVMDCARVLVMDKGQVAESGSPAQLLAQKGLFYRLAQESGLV

| SMILES | EC50 (ABCA4 P1380L) [nM] | EC50 (ABCC6 WT) [nM] |
| --- | --- | --- |
| Cc1nc(C2COC2)nc(C)c1Oc1nc(-c2cncc(C#N)c2)ccc1NS(C)(=O)=O [Compound I-174] | 1000 to 10000 | < 1000 |
| Cc1nc(OC2CC2)c(C(F)(F)F)cc1Oc1nc(-c2cncc(C#N)c2)ccc1NS(C)(=O)=O [Compound I-178] | > 25000 | < 1000 |
| Cc1nc(C2CC2)c(C(F)F)cc1Oc1nc(-c2cncc(C#N)c2)ccc1NS(C)(=O)=O [Compound I-179] | > 25000 | < 1000 |
| Cc1cc(N2CC(F)(F)C2)nc(C)c1Oc1nc(-c2cncc(C#N)c2)ccc1NS(C)(=O)=O [Compound I-180] | > 25000 | < 1000 |
| Cc1cc(C)c(Oc2nc(-c3ccn(C)c(=O)c3)ccc2NS(C)(=O)=O)c(C)n1 [Compound I-186] | > 25000 | < 25000 |
| Cc1cc(C)c(Oc2nc(-c3cc[nH]c(=O)c3)ccc2NS(C)(=O)=O)c(C)n1 [Compound I-187] | > 25000 | ≥ 25000 |
| COc1cc(-c2ccc(NS(C)(=O)=O)c(Oc3c(C)cc(C)nc3C)n2)ccn1 [Compound I-188] | 1000 to 10000 | < 1000 |
| Cc1nc(C)c(Oc2nc(-c3cncc(C(F)(F)F)c3)ccc2NS(C)(=O)=O)c(C)n1 [Compound I-192] | 1000 to 10000 | < 1000 |
| Cc1cc(C)c(Oc2nc(-c3cncc(C4CN(C)C4)c3)ccc2NS(C)(=O)=O)c(C)n1 [Compound I-194] | 10000 to 25000 | ≥ 25000 |
| Cc1cc(C)c(Oc2nc(-c3cncc(N4CC(F)(F)C4)c3)ccc2NS(C)(=O)=O)c(C)n1 [Compound I-195] | > 25000 | < 1000 |
| COC1CN(c2cncc(-c3ccc(NS(C)(=O)=O)c(Oc4c(C)cc(C)nc4C)n3)c2)C1 [Compound I-196] | > 25000 | < 1000 |
| Cc1cc(C(F)F)nc(C)c1Oc1nc(-c2cncc(C3COC3)c2)ccc1NS(C)(=O)=O [Compound I-197] | 1000 to 10000 | < 1000 |
| Cc1cc(C(F)(F)F)nc(C)c1Oc1nc(-c2cncc(C3COC3)c2)ccc1NS(C)(=O)=O [Compound I-198] | > 25000 | ≥ 25000 |
| Cc1cc(C)c(Oc2nc(-c3cncc(N4CCOCC4)c3)ccc2NS(C)(=O)=O)c(C)n1 [Compound I-201] | 1000 to 10000 | 1000 to 10000 |
| COC(=O)c1cncc(-c2ccc(NS(C)(=O)=O)c(Oc3cc(C)n(C)n3)n2)c1 [Compound I-206] | < 25000 | 1000 to 10000 |
| Cc1cc(C)c(Oc2nc(-c3ccnc(C#N)c3)ccc2NS(=O)(=O)C2CC2)c(C)n1 [Compound I-211] | 10000 to 25000 | < 1000 |
| Cc1cc(C)c(Oc2nc(-c3cncc(C4COC4)c3)ccc2NS(C)(=O)=O)c(C)n1 [Compound I-216] | > 25000 | < 1000 |
| Cc1cc(C(F)(F)F)nc(C)c1Oc1nc(-c2ccnc(C#N)c2)ccc1NS(C)(=O)=O [Compound I-219] | < 1000 | < 1000 |
| Cc1cc(C)c(Oc2nc(-c3cncc(C(C)(C)O)c3)ccc2NS(C)(=O)=O)c(C)n1 [Compound I-220] | > 25000 | ≥ 25000 |
| Cc1cc(C)c(Oc2nc(-c3cncc(C#N)c3)ccc2N2CCCS2(=O)=O)c(C)n1 [Compound I-221] | 1000 to 10000 | 1000 to 10000 |
| COc1cc(C)c(Oc2nc(-c3cncc(C#N)c3)ccc2NS(C)(=O)=O)c(C)n1 [Compound I-222] | < 1000 | < 1000 |
| Cc1nc(C)c(C(F)(F)F)cc1Oc1nc(-c2cncc(C#N)c2)ccc1NS(C)(=O)=O [Compound I-225] | > 25000 | < 1000 |
| Cc1cc(Oc2nc(-c3cncc(C#N)c3)ccc2NS(C)(=O)=O)c(C)nc1C [Compound I-226] | > 25000 | < 1000 |
| Cc1cc(C)c(Oc2nc(-c3cncc(CO)c3)ccc2NS(C)(=O)=O)c(C)n1 [Compound I-227] | 1000 to 10000 | < 1000 |
| Cc1cc(C)c(Oc2nc(-c3cncc(C#N)c3)ccc2NS(=O)(=O)C2COC2)c(C)n1 [Compound I-228] | < 1000 | < 1000 |
| Cc1nc(C)c(C2CC2)cc1Oc1nc(-c2cncc(C#N)c2)ccc1NS(C)(=O)=O [Compound I-229] | 1000 to 10000 | 1000 to 10000 |

Results, then the compound that gave them:

| EC50 (ABCA4 P1380L) [nM] | EC50 (ABCC6 WT) [nM] | SMILES |
| --- | --- | --- |
| < 1000 | 1000 to 10000 | Cc1cc(C)c(Oc2nc(-c3cncc(C#N)c3)ccc2NS(=O)(=O)C2(C)CC2)c(C)n1 [Compound I-172] |
| < 1000 | < 1000 | Cc1nc(C(F)F)nc(C)c1Oc1nc(-c2cncc(C#N)c2)ccc1NS(C)(=O)=O [Compound I-173] |
| < 1000 | < 1000 | Cc1nc(C(F)F)nc(C)c1Oc1nc(-c2cncc(Cl)c2)ccc1NS(C)(=O)=O [Compound I-175] |
| < 1000 | < 1000 | Cc1cc(C)c(Oc2nc(-c3cncc(C#N)c3)ccc2NS(C)(=O)=O)c(OC2CC2)n1 [Compound I-176] |
| < 1000 | < 1000 | Cc1cc(N2CCC2)nc(C)c1Oc1nc(-c2cncc(C#N)c2)ccc1NS(C)(=O)=O [Compound I-177] |
| < 1000 | < 1000 | Cc1nc(C2CCC2)nc(C)c1Oc1nc(-c2cncc(C#N)c2)ccc1NS(C)(=O)=O [Compound I-181] |
| < 1000 | < 1000 | Cc1cc(Oc2nc(-c3cncc(C#N)c3)ccc2NS(C)(=O)=O)c(C)nc1C(F)(F)F [Compound I-182] |
| < 1000 | < 1000 | Cc1nc(C2CC2)nc(C)c1Oc1nc(-c2cncc(C#N)c2)ccc1NS(C)(=O)=O [Compound I-183] |
| < 1000 | < 1000 | Cc1nc(C2CC2)c(C(F)(F)F)cc1Oc1nc(-c2cncc(C#N)c2)ccc1NS(C)(=O)=O [Compound I-184] |
| < 1000 | < 1000 | Cc1cc(C)c(Oc2nc(-c3cncc(N4CC(F)C4)c3)ccc2NS(C)(=O)=O)c(C)n1 [Compound I-185] |
| < 1000 | < 1000 | Cc1cc(C)c(Oc2nc(-c3cncc(N4CCC4)c3)ccc2NS(C)(=O)=O)c(C)n1 [Compound I-190] |
| < 1000 | 1000 to 10000 | Cc1nc(C)c(Oc2nc(-c3cncc(C(F)F)c3)ccc2NS(C)(=O)=O)c(C)n1 [Compound I-191] |
| < 1000 | < 1000 | Cc1nc(C)c(Oc2nc(-c3cncc(C4CC4)c3)ccc2NS(C)(=O)=O)c(C)n1 [Compound I-193] |
| < 1000 | 1000 to 10000 | Cc1cc(C(F)F)nc(C)c1Oc1nc(-c2cncc(C#N)c2)ccc1NS(=O)(=O)C1CC1 [Compound I-199] |
| < 1000 | < 1000 | Cc1nc(C(F)(F)F)nc(C)c1Oc1nc(-c2cncc(C#N)c2)ccc1NS(C)(=O)=O [Compound I-200] |
| < 1000 | < 1000 | Cc1cc(C(F)F)nc(C)c1Oc1nc(-c2cncc(Cl)c2)ccc1NS(C)(=O)=O [Compound I-202] |
| < 1000 | < 1000 | Cc1cc(C(F)F)nc(C)c1Oc1nc(-c2ccnc(C#N)c2)ccc1NS(=O)(=O)C1CC1 [Compound I-203] |
| < 1000 | < 1000 | Cc1cc(C(F)F)nc(C)c1Oc1nc(-c2ccnc(C#N)c2)ccc1NS(C)(=O)=O [Compound I-204] |
| < 1000 | < 1000 | Cc1nc(C(F)(F)F)nc(C)c1Oc1nc(-c2cncc(Cl)c2)ccc1NS(C)(=O)=O [Compound I-205] |
| < 1000 | < 1000 | Cc1cc(C2CCC2)nc(C)c1Oc1nc(-c2cncc(C#N)c2)ccc1NS(C)(=O)=O [Compound I-208] |
| < 1000 | < 1000 | COc1nc(C)cc(C)c1Oc1nc(-c2cncc(C#N)c2)ccc1NS(C)(=O)=O [Compound I-209] |
| < 1000 | < 1000 | C#Cc1cncc(-c2ccc(NS(C)(=O)=O)c(Oc3c(C)cc(C)nc3C)n2)c1 [Compound I-212] |
| < 1000 | < 1000 | Cc1cc(C2CC2)nc(C)c1Oc1nc(-c2ccnc(C#N)c2)ccc1NS(C)(=O)=O [Compound I-213] |
| < 1000 | < 1000 | CCS(=O)(=O)Nc1ccc(-c2cncc(C#N)c2)nc1Oc1c(C)cc(C(F)(F)F)nc1C [Compound I-217] |
| < 1000 | < 1000 | Cc1cc(C(F)(F)F)nc(C)c1Oc1nc(-c2cncc(C#N)c2)ccc1NS(=O)(=O)C1CC1 [Compound I-218] |
